Measurements as given in the supplement of paper PMC8149375.

Key:
Settings in all cases: treatment: drug alone; 5 days
[1] = system: 769-P; assay: GI50, drug alone; higher = less potent
Description: (§1)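 Primary HTS: 8 RCC cell lines treated with 8 doses (up to 10 uM) of each library drug alone for 5 days; viability read by CellTiter-Glo and normalised to DMSO. GI50 was fitted with XLfit (4-parameter), AUC is the area under the dose-response curve, and minimum viability is the lowest fraction of DMSO viability across doses.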

[2] = system: 786-O; assay: GI50, drug alone; higher = less potent
Description: as §1

[3] = system: A498; assay: GI50, drug alone; higher = less potent
Description: as §1

[4] = system: ACHN; assay: GI50, drug alone; higher = less potent
Description: as §1

[5] = system: CAKI-1; assay: GI50, drug alone; higher = less potent
Description: as §1

[6] = system: SN12C; assay: GI50, drug alone; higher = less potent
Description: as §1

[7] = system: TK-10; assay: GI50, drug alone; higher = less potent
Description: as §1

[8] = system: UO-31; assay: GI50, drug alone; higher = less potent
Description: as §1

[9] = system: 769-P; assay: minimum viability across doses, drug alone, relative to DMSO (fraction); higher = less growth inhibition
Description: as §1

[10] = system: 786-O; assay: as above
Description: as §1

[11] = system: A498; assay: as above
Description: as §1

[12] = system: ACHN; assay: as above
Description: as §1

[13] = system: CAKI-1; assay: as above
Description: as §1

[14] = system: SN12C; assay: as above
Description: as §1

[15] = system: TK-10; assay: as above
Description: as §1

[16] = system: UO-31; assay: as above
Description: as §1

[17] = system: 769-P; assay: AUC of dose-response viability curve, drug alone (arbitrary (AUC of normalised viability)); higher = less growth inhibition
Description: as §1

[18] = system: 786-O; assay: as above
Description: as §1

[19] = system: A498; assay: as above
Description: as §1

[20] = system: ACHN; assay: as above
Description: as §1

[21] = system: CAKI-1; assay: as above
Description: as §1

[22] = system: SN12C; assay: as above
Description: as §1

[23] = system: TK-10; assay: as above
Description: as §1

[24] = system: UO-31; assay: as above
Description: as §1

Compound	GI50, drug alone [1] [µM]	GI50, drug alone [2] [µM]	GI50, drug alone [3] [µM]	GI50, drug alone [4] [µM]	GI50, drug alone [5] [µM]	GI50, drug alone [6] [µM]	GI50, drug alone [7] [µM]	GI50, drug alone [8] [µM]	minimum viability across doses [9]	minimum viability across doses [10]	minimum viability across doses [11]	minimum viability across doses [12]	minimum viability across doses [13]	minimum viability across doses [14]	minimum viability across doses [15]	minimum viability across doses [16]	AUC of dose-response viability curve [17]	AUC of dose-response viability curve [18]	AUC of dose-response viability curve [19]	AUC of dose-response viability curve [20]	AUC of dose-response viability curve [21]	AUC of dose-response viability curve [22]	AUC of dose-response viability curve [23]	AUC of dose-response viability curve [24]
CCCCOc1c(C(=O)c2c(F)cc(C)cc2F)cnc2[nH]ncc12	> 10	0.0969	> 10	0.267	> 10	> 10	2.45	0.984	0.562	0.0155	0.575	0.198	0.745	0.564	0.47	0.00742	2.95	1.46	3.32	1.93	3.12	2.98	2.35	3.45
CCOc1ccn(-c2ccc(F)cc2)c(=O)c1C(=O)Nc1ccc(Oc2ccnc(N)c2Cl)c(F)c1	> 10	> 10	> 10	8.82	> 10	> 10	> 10	> 10	0.817	0.503	0.87	0.443	0.47	0.75	0.665	0.722	3.17	2.3	3.52	3.06	2.99	3.14	2.99	4.18
Cc1c(NC(=O)OC[C@@H]2COCCN2)cn2ncnc(Nc3ccc4c(cnn4Cc4cccc(F)c4)c3)c12.Cl	5.19	> 10	> 10	4.1	> 10	> 10	1.94	> 10	0.368	0.592	0.861	0.419	0.573	0.677	0.234	0.929	2.92	3.22	3.52	2.75	3.17	3.22	2.53	4.06
Cc1cc2c(F)c(Oc3ncnn4cc(OC[C@@H](C)O)c(C)c34)ccc2[nH]1	> 10	> 10	> 10	> 10	8.98	> 10	> 10	9.55	0.901	0.668	1.09	0.628	0.427	0.909	0.733	0.457	3.39	3.09	4.21	3.04	3.4	3.28	3.23	4.46
Cc1cc2c(F)c(Oc3ncnn4cc(OC[C@@H](C)OC(=O)[C@H](C)N)c(C)c34)ccc2[nH]1	> 10	8.62	> 10	8.45	> 10	> 10	> 10	9.72	0.818	0.358	0.898	0.417	0.605	0.75	0.637	0.458	3.33	2.99	3.68	2.61	3.29	3.35	3.26	3.77
CN(C)Cc1cccc(N/C(=C2\C(=O)Nc3cc(C(=O)N(C)C)ccc32)c2ccccc2)c1	> 10	> 10	> 10	2.67	4	8.69	9.6	9.91	0.867	0.524	1.14	0.127	0.12	0.382	0.481	0.605	3.43	2.81	4.62	2.8	3.08	3.05	2.94	4.64
O=C(NC[C@H](O)CO)c1ccncc1Nc1ccc(I)cc1F	1.14	0.247	> 10	0.56	0.654	5.97	0.715	9.22	0.268	0.292	0.687	0.273	0.203	0.409	0.282	0.367	2.44	1.84	4.02	2.11	2.27	2.62	2.12	4.06
CCS(=O)(=O)N1CC(CC#N)(n2cc(-c3ncnc4[nH]ccc34)cn2)C1	> 10	> 10	> 10	> 10	> 10	> 10	> 10	> 10	0.953	0.619	1.07	0.758	0.926	0.885	0.817	1.11	3.62	3.07	4.43	3.17	3.58	3.36	3.09	4.72
Nc1nccc(Oc2ccc(NC(=O)c3c[nH]cc(-c4ccc(F)cc4)c3=O)cc2F)c1Cl	> 10	> 10	> 10	> 10	> 10	> 10	> 10	3.8	0.951	0.607	0.973	0.649	0.716	0.711	0.689	0.00247	3.52	2.73	4.08	3.5	3.45	3.25	2.97	4.74
